Experimental findings from patent US20250066370A1, “BICYCLIC TRIAZINE DERIVATIVES FOR THE TREATMENT OF CANCER” (DEUTSCHES KREBSFORSCHUNGSZENTRUM, priority 2022, published 2025) are described below.

Experiment [1] deals with CYCLIN K. Description: CYCLIN K nuclear protein level: immunofluorescence/high content analysis in CAL-120 cells. It is filed as cell-based, human. The following applies: 24 h, nuclear CCNK staining intensity, median, read-out: CYCLIN K degradation IF, DC50 - [mol/l] (median). How it is done:
CAL-120 human breast cancer cells (DSMZ ACC 459) are seeded in 1536-well microtiter plates (800 cells per well) containing 50 nanoL of compounds in Dose-Response. Control wells received DMSO or Example 4. Plates are then incubated for 24 h at 37° C. in an humidified incubator and fixed with 4% PFA for 10 min. Then immunofluorescence (IF) against CYCLIN K (ThermoFisher Scientific CCNK Antibody #PA5-85020, rabbit, 1:200 dilution) is performed using standard IF protocols. Cells are then stained with Hoechst 33342 (Life Technologies, H-1399, 0.1 microg/ml) and imaged on an automated confocal microscopy system (e.g. Perkin Elmer Opera Phenix). Nuclear and cytoplasmic intensity as well as the nuclear/cytoplasmic intensity ratio is determined by automated image analysis using custom generated scripts (MetaXpress). Data is then transferred to Genedata Screener software, normalized to DMSO and control and DC50 values (degrading concentration to achieve 50% reduction of nuclear CCNK staining intensity relative to controls) are reported.

Experiment [2] relates to MDA-MB-231-CDK12d-res. Description: Proliferation assay CDK12 degrader resistant MDA-MB-231. The following applies: for IC50: Homo sapiens, 96 h, CDK12 degrader resistant MDA-MB-231 cells, 4 days, median, read-out: Prolif-MDA MB-231-CDK12d-res, IC50 - [mol/] (median); for Ratio (Prolif-MDA MB-231-CDK12d-res IC50 / Prolif-MDA MB-231 IC50): resistant versus parental MDA-MB-231 cells. The experiment is classed as cell-based, human. The source says: CDK12-degrader resistant cells were generated by propagation of CAL-120 human breast adenocarcinoma cells (DSMZ ACC-459) and MDA-MB-231 human breast cancer cells (ATCC HTB-26) in presence of increasing concentrations of the CDK12 degrader compound example 4 from WO 2021/116178. Initial concentrations of example 4 were 2.0E-08 M for CAL-120 cells and 4.6E-08 M for MDA-MB-231 cells, corresponding to ca. 2-fold the IC50 of inhibition of the cells in an proliferation assay. After the treated cells recovered and proliferated again the concentration of compound example 4 was increased to 3-fold IC50.
To determine the inhibitory effect of test compounds on proliferation of CAL-120-CDK12d-res, MDA-MB-231-CDK12d-res the cells were plated at a density of 4,000 cells/well in a 96-well multitier plate in 200 microL of their respective growth medium supplemented 10% fetal calf serum. After 24 hours, the cells of one plate (zero-point plate) were stained with crystal violet (see below), while the medium of the other plates was supplemented with the test substances in various concentrations (0 micromol/L, as well as in the range of 0.01-10 micromol/L; the final concentration of the solvent dimethyl sulfoxide was adjusted to 0.1%) using a Tecan HP D300 Digital Dispenser. The cells were incubated for 4 days in the presence of test substances. Cell proliferation was determined by staining the cells with crystal violet: the cells were fixed by adding 20 microL/measuring point of an 11% glutaric aldehyde solution for 15 minutes at room temperature. After three washing cycles of the fixed cells with water, the plates were dried at room temperature. The cells were stained by adding 100 microL/measuring point of a 0.1% crystal violet solution (pH 3.0). After three washing cycles of the stained cells with water, the plates were dried at room temperature. The dye was dissolved by adding 100 microL/measuring point of a 10% acetic acid solution. The extinction was determined by photometry at a wavelength of 595 nm. The change of cell number, in percent, was calculated by normalization of the measured values to the extinction values of the zero-point plate (=0%) and the extinction of the untreated (0 μM) cells (=100%). The IC50 values (inhibitory concentration at 50% of maximal effect) were determined by means of a 4 parameter fit.

For experiment [3], the target named is CDK2/CyclinE (Homo sapiens (Human), UniProt P24941). The experiment can be described thus: CDK2/CycE kinase assay (TR-FRET). The experiment is classed as biochemical. The following applies: 2 mM ATP (high ATP); median; read-out: CDK2/CyclinE, 2 mM ATP (high ATP), IC50 - [mol/l] (median). The source says: CDK2/CycE-inhibitory activity of compounds of the present invention was quantified employing the CDK2/CycE TR-FRET assay as described in the following paragraphs.
Recombinant fusion proteins of GST and human CDK2 and of GST and human CycE, expressed in insect cells (Sf9) and purified by Glutathion-Sepharose affinity chromatography, were purchased from ProQinase GmbH (Freiburg, Germany). As substrate for the kinase reaction biotinylated peptide biotin-Ttds-YISPLKSPYKISEG (C-terminus in amid form) was used which can be purchased e.g. form the company JERINI peptide technologies (Berlin, Germany).
For the assay 50 nanoL of a 100 fold concentrated solution of the test compound in DMSO was pipetted into a black low volume 384 well microtiter plate or a black 1536 well microtiter plate (both Greiner Bio-One, Frickenhausen, Germany), 2 microL of a solution of CDK2/CycE in aqueous assay buffer [50 millimol/L Tris/HCl PH 8.0, 10 millimol/L MgCl2, 1.0 millimol/L dithiothreitol, 0.1 millimol/L sodium ortho-vanadate, 0.01% (v/v) Nonidet-P40 (Sigma)] were added and the mixture was incubated for 15 min at 22° C. to allow pre-binding of the test compounds to the enzyme before the start of the kinase reaction. Then the kinase reaction was started by the addition of 3 microL of a solution of adenosine-tri-phosphate (ATP, 3.33 millimol/L=>final conc. in the 5 microL assay volume is 2 millimol/L) and substrate (1.25 micromol/L=>final conc. in the 5 microL assay volume is 0.75 micromol/L) in assay buffer and the resulting mixture was incubated for a reaction time of 25 min at 22° C. The concentration of CDK2/CycE was adjusted depending of the activity of the enzyme lot and was chosen appropriate to have the assay in the linear range, typical concentrations were in the range of 10 ng/ml. The reaction was stopped by the addition of 3 microL of a solution of TR-FRET detection reagents (0.333 micromol/L streptavidine-XL665 [Cisbio Bioassays, Codolet, France] and 1.67 nanomol/L anti-RB (pSer807/pSer811)-antibody from BD Pharmingen [#558389] and 2 nanomol/L LANCE EU-W1024 labeled anti-mouse IgG antibody [Perkin-Elmer, product no. AD0077, as an alternative a Terbium-cryptate-labeled anti-mouse IgG antibody from Cisbio Bioassays can be used]) in an aqueous EDTA-solution (167 millimol/L EDTA, 0.2% (w/v) bovine serum albumin in 100 millimol/L HEPES pH 7.5).
The resulting mixture was incubated 1 h at 22° C. to allow the formation of complex between the phosphorylated biotinylated peptide and the detection reagents. Subsequently the amount of phosphorylated substrate was evaluated by measurement of the resonance energy transfer from the Eu-chelate to the streptavidine-XL. Therefore, the fluorescence emissions at 620 nm and 665 nm after excitation at 350 nm was measured in a TR-FRET reader, e.g. a Pherastar (BMG Labtechnologies, Offenburg, Germany) or a Viewlux (Perkin-Elmer). The ratio of the emissions at 665 nm and at […] was taken as the measure for the amount of phosphorylated substrate. The data were normalised (enzyme reaction without inhibitor=0% inhibition, all other assay components but no enzyme=100% inhibition).
On the technique in general: In TR-FRET formats the signal depends on donor and acceptor labels being close together.

Some results are limits rather than exact numbers.

With `COc1ccc(-c2nnc(CNc3nc(N4CCOCC4)nn4c(C(F)(F)F)cnc34)[nH]2)cn1` [Example 18, N-{[5-(6-methoxypyridin-3-yl)-4H-1,2,4-triazol-3-yl]methyl}-2-(morpholin-4-yl)-7-(trifluoromethyl)imidazo[2,1-f][1,2,4]triazin-4-amine], the DC50 in experiment [1] is > 1 µM. Moreover, in experiment [2], the IC50 was determined as 0.288 µM and the “Ratio (Prolif-MDA MB-231-CDK12d-res IC50 / Prolif-MDA MB-231 IC50)” value was 4.0.
As to `FC(F)(F)c1ccc(-c2cnc(CNc3nc(N4CCOCC4)nc4c(C(F)(F)F)cnn34)[nH]2)cc1` [Example 9, 2-(morpholin-4-yl)-8-(trifluoromethyl)-N-({5-[4-(trifluoromethyl)phenyl]-1H-imidazol-2-yl}methyl)pyrazolo[1,5-a][1,3,5]triazin-4-amine], the IC50 in experiment [2] was 0.15 µM; in experiment [3] it was > 20 µM. Further, the “Ratio (Prolif-MDA MB-231-CDK12d-res IC50 / Prolif-MDA MB-231 IC50)” value in experiment [2] is on record as 0.8.
As to `FC(F)(F)c1ccc(-c2cnc(CNc3nc(N4CCOCC4)nn4c(C(F)(F)F)cnc34)[nH]2)cc1` [Example 7, 2-(morpholin-4-yl)-7-(trifluoromethyl)-N-({5-[4-(trifluoromethyl)phenyl]-1H-imidazol-2-yl}methyl)imidazo[2,1-f][1,2,4]triazin-4-amine], in experiment [2], the IC50 amounted to 0.156 µM and the “Ratio (Prolif-MDA MB-231-CDK12d-res IC50 / Prolif-MDA MB-231 IC50)” value is listed as 1.7. In addition, the IC50 in experiment [3] was > 20 µM.
For the compound `FC(F)(F)c1ccc(-c2nnc(CNc3nc(N4CCOCC4)nc4c(Br)cnn34)[nH]2)cc1` [Example 1, 8-bromo-2-(morpholin-4-yl)-N-({5-[4-(trifluoromethyl)phenyl]-4H-1,2,4-triazol-3-yl}methyl)pyrazolo[1,5-a][1,3,5]triazin-4-amine], the IC50 in experiment [3] is 9.81 µM.
On the same count and under the same terms, with `FC(F)(F)Oc1ccc(-c2cnc(CNc3nc(N4CCOCC4)nc4c(Br)cnn34)[nH]2)cc1` [Example 4, 8-bromo-2-(morpholin-4-yl)-N-({5-[4-(trifluoromethoxy)phenyl]-1H-imidazol-2-yl}methyl)pyrazolo[1,5-a][1,3,5]triazin-4-amine] the figure was 10.4 µM.
Consider `COc1ccc(-c2cnc(CNc3nc(N4CCOCC4)nc4c(C(F)(F)F)cnn34)[nH]2)cn1` [Example 21, N-{[5-(6-methoxypyridin-3-yl)-1H-imidazol-2-yl]methyl}-2-(morpholin-4-yl)-8-(trifluoromethyl)pyrazolo[1,5-a][1,3,5]triazin-4-amine], for which the IC50 in experiment [3] turned out to be 6.39 µM.
Still for that read-out and setting: with `FC(F)(F)c1ccc(-c2cnc(CNc3nc(N4CCOCC4)nc4c(Br)cnn34)[nH]2)cc1` [Example 3, 8-bromo-2-(morpholin-4-yl)-N-({5-[4-(trifluoromethyl)phenyl]-1H-imidazol-2-yl}methyl)pyrazolo[1,5-a][1,3,5]triazin-4-amine] the figure was 7.92 µM.
Regarding `FC(F)(F)Oc1ccc(-c2nnc(CNc3nc(N4CCOCC4)nn4c(C(F)(F)F)cnc34)[nH]2)cc1` [Example 14, 2-(morpholin-4-yl)-N-({5-[4-(trifluoromethoxy)phenyl]-4H-1,2,4-triazol-3-yl}methyl)-7-(trifluoromethyl)imidazo[2,1-f][1,2,4]triazin-4-amine], in experiment [3], the IC50 was > 20 µM.
Still for that read-out and setting: with `Cc1ccc(-c2nnc(CNc3nc(N4CCOCC4)nc4c(C(F)(F)F)cnn34)[nH]2)cn1` [Example 22, N-{[5-(6-methylpyridin-3-yl)-4H-1,2,4-triazol-3-yl]methyl}-2-(morpholin-4-yl)-8-(trifluoromethyl)pyrazolo[1,5-a][1,3,5]triazin-4-amine] the figure was 3.12 µM.
As for `FC(F)(F)c1ccc(-c2cnc(CNc3nc(N4CCOCC4)nn4c(C(F)(F)F)cnc34)[nH]2)cn1` [Example 12, 2-(morpholin-4-yl)-7-(trifluoromethyl)-N-({5-[6-(trifluoromethyl)pyridin-3-yl]-1H-imidazol-2-yl}methyl)imidazo[2,1-f][1,2,4]triazin-4-amine], in experiment [2], the IC50 was found to be 0.031 µM and the “Ratio (Prolif-MDA MB-231-CDK12d-res IC50 / Prolif-MDA MB-231 IC50)” value is 1.4. In addition, the IC50 in experiment [3] was > 20 µM.
Consider `FC(F)(F)Oc1ccc(-c2nnc(CNc3nc(N4CCOCC4)nn4c(C(F)(F)F)cnc34)[nH]2)cn1` [Example 19, 2-(morpholin-4-yl)-N-({5-[6-(trifluoromethoxy)pyridin-3-yl]-4H-1,2,4-triazol-3-yl}methyl)-7-(trifluoromethyl)imidazo[2,1-f][1,2,4]triazin-4-amine], for which the IC50 is 0.103 µM in experiment [2] and > 20 µM in experiment [3]. For the same compound, the “Ratio (Prolif-MDA MB-231-CDK12d-res IC50 / Prolif-MDA MB-231 IC50)” value in experiment [2] turned out to be 2.7.
Consider `FC(F)(F)c1ccc(-c2cnc(CNc3nc(N4CCOCC4)nc4c(C(F)(F)F)cnn34)[nH]2)cn1` [Example 24, 2-(morpholin-4-yl)-8-(trifluoromethyl)-N-({5-[6-(trifluoromethyl)pyridin-3-yl]-1H-imidazol-2-yl}methyl)pyrazolo[1,5-a][1,3,5]triazin-4-amine], for which the DC50 in experiment [1] was > 1 µM. In experiment [2], the IC50 was found to be 0.0626 µM and the “Ratio (Prolif-MDA MB-231-CDK12d-res IC50 / Prolif-MDA MB-231 IC50)” value was 2.9.
Turning to `FC(F)(F)Oc1ccc(-c2nnc(CNc3nc(N4CCOCC4)nc4c(Br)cnn34)[nH]2)cc1` [Example 2, 8-bromo-2-(morpholin-4-yl)-N-({5-[4-(trifluoromethoxy)phenyl]-4H-1,2,4-triazol-3-yl}methyl)pyrazolo[1,5-a][1,3,5]triazin-4-amine], the IC50 in experiment [3] came to 11.2 µM.
